Experiment [1] addresses T1, BuChE (Homo sapiens, UniProt P06276). The experiment can be described thus: Sensitivity of BuChE to cholinesterase inhibitors (background). To be noted: ratio of Ki BuChE to Ki AChE. Type of experiment: biochemical.
The target of experiment [2] is T1, BuChE. As to conditions: in words; cited from earlier work.

Molecules are shown by their SMILES.

T1 sequence (P06276 29-602): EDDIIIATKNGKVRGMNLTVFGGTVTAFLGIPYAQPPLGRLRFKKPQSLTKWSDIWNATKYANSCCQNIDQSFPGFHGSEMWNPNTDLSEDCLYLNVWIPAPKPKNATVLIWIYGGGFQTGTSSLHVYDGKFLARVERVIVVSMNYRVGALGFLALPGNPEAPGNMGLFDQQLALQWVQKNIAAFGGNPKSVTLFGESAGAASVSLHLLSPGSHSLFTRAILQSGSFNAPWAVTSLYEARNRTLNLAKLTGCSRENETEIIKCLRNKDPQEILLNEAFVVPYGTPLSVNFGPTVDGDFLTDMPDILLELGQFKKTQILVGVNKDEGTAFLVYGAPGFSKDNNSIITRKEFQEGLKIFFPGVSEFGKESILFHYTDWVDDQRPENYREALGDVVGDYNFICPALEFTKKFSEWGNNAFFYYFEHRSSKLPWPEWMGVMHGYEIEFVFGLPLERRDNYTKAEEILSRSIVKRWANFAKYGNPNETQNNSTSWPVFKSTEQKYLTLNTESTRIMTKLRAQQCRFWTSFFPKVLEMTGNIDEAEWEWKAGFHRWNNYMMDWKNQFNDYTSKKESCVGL

For `C=CC[N+](C)(C)c1ccc(CCC(=O)CCc2ccc([N+](C)(C)CC=C)cc2)cc1` [BW284c51, 1,5-bis(4-allyldimethylammoniumphenyl)pentan-3-one dibromide], the “difference in sensitivity of BuChE compared to AChE” value on BuChE [1] is recorded as 1400 fold.
For `CC(C)NP(=O)(NC(C)C)OP(=O)(NC(C)C)NC(C)C` [Iso-OMPA, tetraisopropyl pyrophosphoramide], the “sensitivity of BuChE to the inhibitor compared with AChE” value at BuChE [2] is listed as “much more sensitive”.

(Values after US9062321B2 (priority 2004, dated 2015).)
